Test results: patent US20240254119A1 (THIRD HARMONIC BIO, INC., priority 2022, published 2024)

Columns and labels:
[1] = test system: KIT phosphorylation in M-07e cells; test: Cell-based KIT phosphorylation in M-07e cells by pKIT ELISA; parameters: species or system human; details: SCF stimulation
Outline: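 Serum-starved M-07e cells (1 × 10^6/mL, overnight) were treated with compounds (8-point 3-fold series from 1 uM) for 2 h at 37 °C, then stimulated with 100 ng/mL SCF for 5 min. Lysate phospho-KIT was captured on anti-phospho-CD117 plates, detected with anti-pY-HRP, and read at 450 nm against a pc-KIT standard curve.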

Caco-2 cells = test: Caco-2 permeability assay; format: in vitro ADME; details: for Caco-2: Papp A-B: Caco-2, apical to basolateral
Procedure: Exemplary compounds were tested for cell permeability in Caco-2, MDCKII-MDR1 and MDCKII-BCRP cell lines with efflux transporter engagement inferred from the efflux ratios determined. Procedures and results are described below. […] This feature of certain compounds is in part due to efflux transporter engagement. See, for instance, exemplary such compounds included in data tables below.
The transport buffer in the study was HBSS with 10.0 mM HEPES at pH 7.40±0.05. Test compound was tested at 2.00 μM bi-directionally in duplicate. Digoxin was tested at 10.0 μM bi-directionally in duplicate, while nadolol and metoprolol were tested at 2.00 μM in A to B direction in duplicate. Final DMSO concentration was adjusted to less than 1%. The plate was incubated for 2 hours in CO2 incubator at 37±1° C., with 5% CO2 at saturated humidity without shaking. And all samples after mixed with acetonitrile containing internal standard were centrifuged at 3200×g for 10 min. For nadolol and metoprolol, 200 μL supernatant solution was diluted with 600 μL ultra-pure water for LC-MS/MS analysis. For digoxin and test compounds, 200 μL supernatant solution was diluted with 200 μL ultra-pure water for LC-MS/MS analysis. Concentrations of test and control compounds in starting solution, donor solution, and receiver solution were quantified by LC-MS/MS methodologies, using peak area ratio of analyte/internal standard.
After transport assay, lucifer yellow rejection assay was applied to determine the Caco-2 cell monolayer integrity.
[…] And permeation of lucifer yellow through the monolayer was measured to evaluate the cellular integrity.
The apparent permeability coefficient Papp (cm/s) was calculated using the equation: Papp=(dCr/dt)×Vr/(A×C0), where dCr/dt is the cumulative concentration of compound in the receiver chamber as a function of time (μM/s); Vr is the solution volume in the receiver chamber (0.075 mL on the apical side, 0.25 mL on the basolateral side); A is the surface area for the transport, i.e. 0.0804 cm^2 for the area of the monolayer; C0 is the initial concentration in the donor chamber (μM).
The efflux ratio was calculated using the equation: Efflux Ratio=Papp (BA)/Papp(AB).
Percent recovery was calculated using the equation: % Solution Recovery=100×[(Vr×Cr)+(Vd×Cd)]/(Vd×C0), where Vd is the volume in the donor chambers (0.075 mL on the apical side, 0.25 mL on the basolateral side); Cd and Cr are the final concentrations of transport compound in donor and receiver chambers, respectively.

Compound | IC50 [1] [nM] | Caco-2: Efflux Ratio (Caco-2 cells) | Caco-2: Papp A-B (Caco-2 cells) | IC50 ([1]; Homo sapiens) [nM]
Cc1ccc(-c2noc(C(C)NS(C)(=O)=O)n2)cc1NC(=O)c1cnc2ccccn12 (single isomer, unassigned) [Compound I-238] | 50 to 500 |  |  | 
Cc1ccc(-c2noc(CO)n2)cc1NC(=O)c1cnc2ccccn12 [Compound I-337] | ≤ 50 |  |  | 
Cc1ccc(-c2noc(C(C)NS(C)(=O)=O)n2)cc1NC(=O)c1cnc2ccccn12 (single isomer, unassigned) [Compound I-237] | 50 to 500 | 57.6 | 0.50 10^−6 cm/s | 
CCCS(=O)(=O)N1CC(c2nc(-c3ccc(Cl)c(NC(=O)c4cnc5ccccn45)c3)no2)C1 [Compound I-220] | 50 to 500 | 0.25 | 16.5 10^−6 cm/s | 
Cc1nc(-c2ccc(C)c(NC(=O)c3cnc4ccc(N(C)C)cn34)c2)no1 [Compound I-205] | ≤ 50 |  |  | 
Cc1ccc(-c2noc(C3COC3)n2)cc1NC(=O)c1cnc2ccccn12 [Compound I-138] | ≤ 50 | 1.42 | 16.6 10^−6 cm/s | 
Cc1ccc(-c2noc(CC(O)C(F)F)n2)cc1NC(=O)c1cnc2ccccn12 (stereo not drawn) [Compound I-114] | ≤ 50 | 4.4 | 6.74 10^−6 cm/s | 
COCCS(=O)(=O)N1CC(c2nc(-c3ccc(C)c(NC(=O)c4cnc5ccccn45)c3)no2)C1 [Compound I-235] | 50 to 500 |  |  | 
COC(=O)N1CC(c2nc(-c3ccc(Cl)c(NC(=O)c4cnc5ccccn45)c3)no2)C1 [Compound I-339] | ≤ 50 | 0.56 | 22.2 10^−6 cm/s | 
Cc1ccc(-c2noc(C3CN(C(=O)CO)C3)n2)cc1NC(=O)c1cnc2ccccn12 [Compound I-287] |  | 135 | 0.13 10^−6 cm/s | 
Cc1ccc(-c2noc(C3CCC(F)C3)n2)cc1NC(=O)c1cnc2ccccn12 (racemic) [Compound I-319] | ≤ 50 | 0.83 | 16 10^−6 cm/s | 
Cc1ccc(-c2noc(CC3CC(F)(F)C3)n2)cc1NC(=O)c1cnc2ccccn12 [Compound I-124] | ≤ 50 |  |  | 
Cc1ccc(-c2noc(C3CCS(=O)(=O)C3)n2)cc1NC(=O)c1cnc2ccccn12 (racemic) [Compound I-389] |  | 25.4 | 1.25 10^−6 cm/s | 
Cc1ccc(-c2noc([C@H]3C[C@@H]3F)n2)cc1NC(=O)c1cnn2ccccc12 [Compound I-109] | ≤ 50 |  |  | 
Cc1ccc(-c2noc(C3CC(F)C3)n2)cc1NC(=O)c1cnc2ccccn12 (stereo not drawn) [Compound I-381] | ≤ 50 | 0.97 | 17.1 10^−6 cm/s | 
CCOc1ccn2c(C(=O)Nc3cc(-c4noc([C@H]5C[C@@H]5F)n4)ccc3C)cnc2c1 [Compound I-93] | ≤ 50 |  |  | 
Cc1ccc(-c2noc([C@H]3C[C@@H]3F)n2)cc1NC(=O)c1cnc2ccc(C#N)cn12 [Compound I-384] |  | 0.90 | 16.5 10^−6 cm/s | 
Cc1ccc(-c2noc(C3CC4(CCC4)C3)n2)cc1NC(=O)c1cnc2ccccn12 [Compound I-367] | ≤ 50 |  |  | 
Cc1ccc(-c2noc(C3(N)CC4(CC(F)(F)C4)C3)n2)cc1NC(=O)c1cnc2ccccn12 [Compound I-307] |  | 1.79 | 9.28 10^−6 cm/s | 
COc1ccn2c(C(=O)Nc3cc(-c4noc(C[C@H](C)O)n4)ccc3C)cnc2c1 [Compound I-94] | ≤ 50 |  |  | 
Cc1ccc(-c2noc(C3CCN3)n2)cc1NC(=O)c1cnc2ccccn12 (racemic) [Compound I-394] |  | 3.48 | 6.31 10^−6 cm/s | 
Cc1ccc(-c2noc([C@H]3C[C@@H]3F)n2)cc1NC(=O)c1cnc2cc(OC(F)(F)F)ccn12 [Compound I-87] | ≤ 50 | 0.66 | 7.81 10^−6 cm/s | 
Cc1ccc(-c2noc(C(C)O)n2)cc1NC(=O)c1cnc2ccccn12 (racemic) [Compound I-364] |  | 3.09 | 8.39 10^−6 cm/s | 

Compound | IC50 [1] [nM] | Caco-2: Efflux Ratio (Caco-2 cells) | Caco-2: Papp A-B (Caco-2 cells) | IC50 ([1]; Homo sapiens) [nM]
COC(=O)N1CC(c2nc(-c3ccc(C)c(NC(=O)c4cnc5cc(OC[C@H](C)O)ccn45)c3)no2)C1 [Compound I-262] | ≤ 50 |  |  | 
Cc1ccc(-c2noc(CC3CC3(F)F)n2)cc1NC(=O)c1cnc2ccccn12 (stereo not drawn) [Compound I-125] | ≤ 50 |  |  | 
Cc1ccc(-c2noc([C@@H](C)O)n2)cc1NC(=O)c1cnc2ccccn12 [Compound I-270] |  | 3.35 | 8.5 10^−6 cm/s | 
Cc1ccc(-c2noc([C@H]3C[C@@H]3F)n2)cc1NC(=O)c1cnc2ccc(F)cn12 [Compound I-288] | 50 to 500 | 0.56 | 17.4 10^−6 cm/s | 
COc1ccc2ncc(C(=O)Nc3cc(-c4noc(C[C@@H](C)O)n4)ccc3C)n2c1 [Compound I-119] | ≤ 50 |  |  | 
COc1ccn2c(C(=O)Nc3cc(-c4noc(CC5CC(F)(F)C5)n4)ccc3C)cnc2c1 [Compound I-91] | ≤ 50 |  |  | 
Cc1ccc(-c2noc(C3CCC3F)n2)cc1NC(=O)c1cnc2ccccn12 (racemic) [Compound I-377] | ≤ 50 |  |  | 
Cc1nc(-c2ccc(C)c(NC(=O)c3cnc4cc(C(F)F)ccn34)c2)no1 [Compound I-134] | 500 to 5000 |  |  | 
Cc1ccc(-c2noc([C@H]3C[C@@H]3F)n2)cc1NC(=O)c1cnc2cc(COCC(C)(C)O)ccn12 [Compound I-71, N-[5-[5-[(1R,2S)-2-fluorocyclopropyl]-1,2,4-oxadiazol-3-yl]-2-methyl-phenyl]-7-[(2-hydroxy-2-methyl-propoxy)methyl]imidazo[1,2-a]pyridine-3-carboxamide] |  |  |  | ≤ 50
COC(=O)N1CC(c2nc(-c3ccc(C)c(NC(=O)c4cnn5cc(C#N)ccc45)c3)no2)C1 [Compound I-204] | 50 to 500 |  |  | 
Cc1ccc(-c2noc(C3CC(OCCF)C3)n2)cc1NC(=O)c1cnc2ccccn12 (stereo not drawn) [Compound I-369] |  | 0.77 | 20.6 10^−6 cm/s | 
Cc1ccc(-c2noc([C@H]3CCC(=O)N3)n2)cc1NC(=O)c1cnc2ccccn12 (racemic) [Compound I-327] |  | 102 | 0.27 10^−6 cm/s | 
CNC(=O)N1CC(c2nc(-c3ccc(C)c(NC(=O)c4cnc5ccccn45)c3)no2)C1 [Compound I-282] |  | 152 | 0.14 10^−6 cm/s | 
COc1ccn2c(C(=O)Nc3cc(-c4noc(C5CC(F)(F)C5)n4)ccc3C)cnc2c1 [Compound I-96] | ≤ 50 |  |  | 
Cc1ccc(-c2noc(C3(C)CC(F)(F)CN3)n2)cc1NC(=O)c1cnc2ccccn12 (racemic) [Compound I-328] |  | 1.02 | 18.2 10^−6 cm/s | 
CCCNc1ccn2c(C(=O)Nc3cc(-c4noc([C@H]5C[C@@H]5F)n4)ccc3C)cnc2c1 [Compound I-304] |  | 0.92 | 4.31 10^−6 cm/s | 
Cc1ccc(-c2cnc(N3CC(F)(F)C3)o2)cc1NC(=O)c1cnc2ccccn12 [Compound I-213] | 50 to 500 |  |  | 
COc1ccn2c(C(=O)Nc3cc(-c4noc(CC(O)C(F)F)n4)ccc3C)cnc2c1 (single isomer, unassigned) [Compound I-76] | ≤ 50 |  |  | 
Cc1ccc(-c2noc(C3(O)CC(F)(F)C3)n2)cc1NC(=O)c1cnc2ccccn12 [Compound I-380] |  | 3.45 | 7.5 10^−6 cm/s | 
COC(=O)N1CC(c2nc(-c3ccc(C)c(NC(=O)c4cnc5cc(O[C@@H](C)CO)ccn45)c3)no2)C1 (single isomer, unassigned) [Compound I-217] | 50 to 500 |  |  | 
Cc1ccc(-c2noc(CC(C)O)n2)cc1NC(=O)c1cnc2ccccn12 (racemic) [Compound I-363] |  | 2.55 | 8.85 10^−6 cm/s | 
COC(=O)N1CC(c2nc(-c3ccc(C)c(NC(=O)c4cnc5cc(OC[C@@H](C)O)ccn45)c3)no2)C1 [Compound I-263] | ≤ 50 |  |  | 
Cc1ccc(-c2noc(CC(O)C(F)F)n2)cc1NC(=O)c1cnc2ccccn12 (stereo not drawn) [Compound I-122] | ≤ 50 |  |  | 
